# Like-named read-outs stand apart in the source and are kept apart here.
# Tests used:
# NEK3 = NEK3 (Homo sapiens (Human), UniProt P51956); experiment: Kinase binding screen; conditions: read-out: Percent Control at 100 nM Compound Concentration
# CLK3 = CLK3 (Homo sapiens (Human), UniProt P49761); experiment: Kinase binding screen; conditions: read-out: Percent Control at 100 nM Compound Concentration
# AXL = AXL (Homo sapiens (Human), UniProt P30530); experiment: Kinase binding screen; conditions: read-out: Percent Control at 100 nM Compound Concentration
# YANK2 = YANK2 (Homo sapiens (Human), UniProt Q9NY57); experiment: Kinase binding screen; conditions: read-out: Percent Control at 100 nM Compound Concentration
# Sequence of YANK2 (Q9NY57 whole entry): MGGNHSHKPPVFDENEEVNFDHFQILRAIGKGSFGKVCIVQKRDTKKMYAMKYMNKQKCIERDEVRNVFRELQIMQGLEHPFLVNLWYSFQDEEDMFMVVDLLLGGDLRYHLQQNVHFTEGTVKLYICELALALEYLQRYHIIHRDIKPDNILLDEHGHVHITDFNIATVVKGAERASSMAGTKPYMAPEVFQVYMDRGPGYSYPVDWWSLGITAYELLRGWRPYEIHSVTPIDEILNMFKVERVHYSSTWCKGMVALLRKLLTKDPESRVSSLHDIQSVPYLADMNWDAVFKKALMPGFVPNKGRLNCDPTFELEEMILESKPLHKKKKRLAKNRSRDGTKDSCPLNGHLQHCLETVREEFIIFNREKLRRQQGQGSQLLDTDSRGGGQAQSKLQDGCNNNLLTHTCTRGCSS
# PRKG1 = PRKG1 (Homo sapiens (Human), UniProt Q13976); experiment: Kinase binding screen; conditions: read-out: Percent Control at 100 nM Compound Concentration
# FGFR4 = FGFR4 (Homo sapiens (Human), UniProt P22455); experiment: Kinase binding screen; conditions: read-out: Percent Control at 100 nM Compound Concentration
# SNARK = SNARK (Homo sapiens (Human), UniProt Q9H093); experiment: Kinase binding screen; conditions: read-out: Percent Control at 100 nM Compound Concentration
# non-mutant kinases = experiment: Selectivity score (S-score) from kinase binding screen; design: species or system human; conditions: Screening Concentration 100 nM; 403 non-mutant kinases
# Experimental: Based on the binding affinities in Table D, a selectivity score (S-score) was calculated for each compound as a quantitative measure of compound selectivity. The S-score is calculated by dividing the number of kinases that a compound binds to by the total number of distinct kinases tested, excluding mutant variants. The selectivity score value can be calculated using % Ctrl as a potency threshold, as shown below, and provides a quantitative method of describing compound selectivity to facilitate comparison of different compounds.
# S(10)=(number of non-mutant kinases with % Ctrl<[…])/(number of non-mutant kinases tested).
# […]=(number of non-mutant kinases with % Ctrl<[…])/(number of non-mutant kinases tested).
# […]=(number of non-mutant kinases with % Ctrl<1)/(number of non-mutant kinases tested).
# PCTK3 = PCTK3 (Homo sapiens (Human), UniProt Q07002); experiment: Kinase binding screen; conditions: read-out: Percent Control at 100 nM Compound Concentration
# DMPK2 = DMPK2 (Homo sapiens (Human), UniProt Q6DT37); experiment: Kinase binding screen; conditions: read-out: Percent Control at 100 nM Compound Concentration
# Sequence of DMPK2 (Q6DT37 whole entry): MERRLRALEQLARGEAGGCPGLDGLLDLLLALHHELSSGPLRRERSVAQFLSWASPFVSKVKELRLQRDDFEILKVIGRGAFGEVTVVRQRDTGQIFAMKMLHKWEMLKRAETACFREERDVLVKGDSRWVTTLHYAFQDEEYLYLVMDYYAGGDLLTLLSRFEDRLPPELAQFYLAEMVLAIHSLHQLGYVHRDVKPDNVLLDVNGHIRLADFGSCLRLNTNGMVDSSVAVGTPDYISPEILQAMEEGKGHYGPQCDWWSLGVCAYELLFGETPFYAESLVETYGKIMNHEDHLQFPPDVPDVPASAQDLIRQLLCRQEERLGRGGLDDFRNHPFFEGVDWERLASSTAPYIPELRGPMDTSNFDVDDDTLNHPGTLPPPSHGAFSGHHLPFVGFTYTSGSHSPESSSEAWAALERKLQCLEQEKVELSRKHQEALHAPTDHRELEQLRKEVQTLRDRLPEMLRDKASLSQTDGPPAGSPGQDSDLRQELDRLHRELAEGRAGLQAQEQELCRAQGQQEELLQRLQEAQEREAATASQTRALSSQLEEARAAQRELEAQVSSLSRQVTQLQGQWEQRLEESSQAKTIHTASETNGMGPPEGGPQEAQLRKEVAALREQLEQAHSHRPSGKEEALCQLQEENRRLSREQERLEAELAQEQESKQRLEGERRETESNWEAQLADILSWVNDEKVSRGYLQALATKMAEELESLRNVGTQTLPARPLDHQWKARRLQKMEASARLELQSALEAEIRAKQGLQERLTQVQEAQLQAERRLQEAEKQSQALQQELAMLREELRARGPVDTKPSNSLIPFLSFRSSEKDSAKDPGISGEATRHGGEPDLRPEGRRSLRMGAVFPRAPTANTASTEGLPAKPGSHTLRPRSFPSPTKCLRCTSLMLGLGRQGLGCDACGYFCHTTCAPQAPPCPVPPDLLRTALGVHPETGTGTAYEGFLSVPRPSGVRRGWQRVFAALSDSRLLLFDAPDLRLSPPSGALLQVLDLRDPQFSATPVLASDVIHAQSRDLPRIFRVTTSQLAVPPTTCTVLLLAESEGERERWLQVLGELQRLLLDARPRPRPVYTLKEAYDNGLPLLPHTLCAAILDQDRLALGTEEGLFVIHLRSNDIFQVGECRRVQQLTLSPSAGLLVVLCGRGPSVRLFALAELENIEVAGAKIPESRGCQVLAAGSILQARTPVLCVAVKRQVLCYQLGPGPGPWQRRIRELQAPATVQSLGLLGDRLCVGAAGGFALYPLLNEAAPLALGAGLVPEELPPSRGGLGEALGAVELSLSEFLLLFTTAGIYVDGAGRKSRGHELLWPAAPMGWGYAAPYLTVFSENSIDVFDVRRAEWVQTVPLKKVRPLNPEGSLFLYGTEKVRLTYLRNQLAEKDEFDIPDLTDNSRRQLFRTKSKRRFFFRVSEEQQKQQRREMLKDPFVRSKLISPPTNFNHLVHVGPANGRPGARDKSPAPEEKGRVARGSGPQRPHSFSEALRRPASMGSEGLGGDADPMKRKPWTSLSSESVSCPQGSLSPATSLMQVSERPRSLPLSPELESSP
# ADCK3 = ADCK3 (Homo sapiens (Human), UniProt Q8NI60); experiment: Kinase binding screen; conditions: read-out: Percent Control at 100 nM Compound Concentration
# Sequence of ADCK3 (Q8NI60 163-647): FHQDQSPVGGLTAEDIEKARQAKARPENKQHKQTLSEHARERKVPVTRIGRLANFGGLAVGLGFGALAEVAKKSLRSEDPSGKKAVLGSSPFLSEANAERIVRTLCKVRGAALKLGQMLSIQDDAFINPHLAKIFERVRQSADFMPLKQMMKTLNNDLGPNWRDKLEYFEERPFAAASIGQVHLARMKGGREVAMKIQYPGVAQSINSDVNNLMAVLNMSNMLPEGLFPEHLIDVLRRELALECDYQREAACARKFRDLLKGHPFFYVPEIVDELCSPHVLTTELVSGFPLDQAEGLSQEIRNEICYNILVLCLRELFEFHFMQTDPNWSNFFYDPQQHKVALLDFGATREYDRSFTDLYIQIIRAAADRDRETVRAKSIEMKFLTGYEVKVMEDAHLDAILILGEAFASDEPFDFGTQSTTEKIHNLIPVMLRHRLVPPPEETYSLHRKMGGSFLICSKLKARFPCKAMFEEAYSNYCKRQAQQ
# MELK = MELK (Homo sapiens (Human), UniProt Q14680); experiment: Kinase binding screen; conditions: read-out: Percent Control at 100 nM Compound Concentration
# AAK1 = AAK1 (Homo sapiens (Human), UniProt Q2M2I8); experiment: Kinase binding screen; conditions: read-out: Percent Control at 100 nM Compound Concentration
# PHKG2 = PHKG2 (Homo sapiens (Human), UniProt P15735); experiment: Kinase binding screen; conditions: read-out: Percent Control at 100 nM Compound Concentration
# MARK4 = MARK4 (Homo sapiens (Human), UniProt Q96L34); experiment: Kinase binding screen; conditions: read-out: Percent Control at 100 nM Compound Concentration
# PIK3CA(M10431) = PIK3CA(M10431) (Homo sapiens (Human), UniProt P42336, M1043I); experiment: Kinase binding screen; conditions: read-out: Percent Control at 100 nM Compound Concentration
# LRRK2 = LRRK2 (Homo sapiens (Human), UniProt Q5S007); experiment: Kinase binding screen; conditions: read-out: Percent Control at 100 nM Compound Concentration
# [1] = target: ABL1(F317L)-nonphosphorylated (Homo sapiens (Human), UniProt P00519, F317L); experiment: Kinase binding screen; conditions: read-out: Percent Control at 100 nM Compound Concentration
# PRKCD = PRKCD (Homo sapiens (Human), UniProt Q05655); experiment: Kinase binding screen; conditions: read-out: Percent Control at 100 nM Compound Concentration
# Sequence of PRKCD (Q05655 whole entry): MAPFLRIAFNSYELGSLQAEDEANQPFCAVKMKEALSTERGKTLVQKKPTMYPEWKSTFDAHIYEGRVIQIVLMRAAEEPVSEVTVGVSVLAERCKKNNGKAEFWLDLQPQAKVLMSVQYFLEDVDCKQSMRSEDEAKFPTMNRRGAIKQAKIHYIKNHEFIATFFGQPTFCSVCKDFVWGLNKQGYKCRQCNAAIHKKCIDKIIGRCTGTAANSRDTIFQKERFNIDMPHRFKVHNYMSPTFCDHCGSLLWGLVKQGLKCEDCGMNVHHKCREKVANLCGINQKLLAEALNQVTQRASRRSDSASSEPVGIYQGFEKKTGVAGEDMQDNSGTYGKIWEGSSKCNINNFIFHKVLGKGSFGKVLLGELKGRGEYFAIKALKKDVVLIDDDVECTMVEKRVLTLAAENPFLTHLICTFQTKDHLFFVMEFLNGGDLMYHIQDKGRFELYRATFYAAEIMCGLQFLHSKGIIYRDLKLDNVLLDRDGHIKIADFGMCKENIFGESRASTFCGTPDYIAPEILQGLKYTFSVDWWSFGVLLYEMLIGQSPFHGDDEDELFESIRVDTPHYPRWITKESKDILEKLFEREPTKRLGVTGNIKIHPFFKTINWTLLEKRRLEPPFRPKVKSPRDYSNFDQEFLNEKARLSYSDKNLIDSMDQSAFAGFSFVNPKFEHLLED
# PDGFRA = PDGFRA (Homo sapiens (Human), UniProt P16234); experiment: Kinase binding screen; conditions: read-out: Percent Control at 100 nM Compound Concentration
# [2] = target: ABL1(E255K)-phosphorylated (Homo sapiens (Human), UniProt P00519, E255K); experiment: Kinase binding screen; conditions: read-out: Percent Control at 100 nM Compound Concentration
# ACVRL1 = ACVRL1 (Homo sapiens (Human), UniProt P37023); experiment: Kinase binding screen; conditions: read-out: Percent Control at 100 nM Compound Concentration
# Sequence of ACVRL1 (P37023 22-503): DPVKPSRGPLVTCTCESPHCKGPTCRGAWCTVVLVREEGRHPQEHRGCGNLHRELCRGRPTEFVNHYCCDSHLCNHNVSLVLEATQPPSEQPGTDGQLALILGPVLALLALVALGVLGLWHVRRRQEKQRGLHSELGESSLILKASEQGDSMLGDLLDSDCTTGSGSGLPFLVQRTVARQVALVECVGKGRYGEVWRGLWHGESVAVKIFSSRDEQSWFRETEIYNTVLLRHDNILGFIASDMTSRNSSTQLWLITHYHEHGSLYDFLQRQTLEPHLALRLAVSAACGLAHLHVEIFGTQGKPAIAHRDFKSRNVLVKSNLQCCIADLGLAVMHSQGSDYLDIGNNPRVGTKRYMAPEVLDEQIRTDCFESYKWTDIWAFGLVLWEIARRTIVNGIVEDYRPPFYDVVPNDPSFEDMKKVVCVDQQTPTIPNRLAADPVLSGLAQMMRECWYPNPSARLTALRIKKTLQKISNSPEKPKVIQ
# YSK1 = YSK1 (Homo sapiens (Human), UniProt O00506); experiment: Kinase binding screen; conditions: read-out: Percent Control at 100 nM Compound Concentration
# ERBB2 = ERBB2 (Homo sapiens (Human), UniProt P04626); experiment: Kinase binding screen; conditions: read-out: Percent Control at 100 nM Compound Concentration
# Sequence of ERBB2 (P04626 23-1255): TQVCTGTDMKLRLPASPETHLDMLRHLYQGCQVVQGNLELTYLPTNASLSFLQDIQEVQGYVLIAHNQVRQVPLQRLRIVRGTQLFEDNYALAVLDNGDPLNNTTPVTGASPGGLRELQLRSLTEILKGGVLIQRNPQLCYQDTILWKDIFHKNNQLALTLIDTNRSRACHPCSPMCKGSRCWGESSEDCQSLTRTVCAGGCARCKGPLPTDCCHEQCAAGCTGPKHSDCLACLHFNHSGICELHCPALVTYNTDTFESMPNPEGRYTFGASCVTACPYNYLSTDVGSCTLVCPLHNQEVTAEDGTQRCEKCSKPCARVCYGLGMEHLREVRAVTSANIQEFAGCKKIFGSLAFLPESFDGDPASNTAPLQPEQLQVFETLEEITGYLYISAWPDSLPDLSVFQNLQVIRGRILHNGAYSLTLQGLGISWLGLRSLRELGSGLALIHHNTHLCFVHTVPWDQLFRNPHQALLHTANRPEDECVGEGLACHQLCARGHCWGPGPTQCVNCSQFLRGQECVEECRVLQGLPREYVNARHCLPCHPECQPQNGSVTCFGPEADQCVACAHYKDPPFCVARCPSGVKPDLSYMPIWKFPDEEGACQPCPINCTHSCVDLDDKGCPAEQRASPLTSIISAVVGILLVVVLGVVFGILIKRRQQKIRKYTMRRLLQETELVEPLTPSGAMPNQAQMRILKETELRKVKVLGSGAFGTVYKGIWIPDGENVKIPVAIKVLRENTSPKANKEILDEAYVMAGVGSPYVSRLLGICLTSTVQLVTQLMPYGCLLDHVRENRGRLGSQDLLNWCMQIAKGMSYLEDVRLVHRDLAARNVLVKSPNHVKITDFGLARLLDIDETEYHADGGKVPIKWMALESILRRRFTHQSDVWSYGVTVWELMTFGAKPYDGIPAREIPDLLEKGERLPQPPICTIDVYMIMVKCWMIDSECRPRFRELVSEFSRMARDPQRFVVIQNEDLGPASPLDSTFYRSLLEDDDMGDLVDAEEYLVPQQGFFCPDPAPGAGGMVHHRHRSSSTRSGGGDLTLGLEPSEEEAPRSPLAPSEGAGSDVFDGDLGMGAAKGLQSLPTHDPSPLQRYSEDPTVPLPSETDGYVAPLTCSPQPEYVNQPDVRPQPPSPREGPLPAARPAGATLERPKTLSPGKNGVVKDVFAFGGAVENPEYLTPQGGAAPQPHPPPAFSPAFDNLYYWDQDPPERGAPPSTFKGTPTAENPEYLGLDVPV
# CDK2 = CDK2 (Homo sapiens (Human), UniProt P24941); experiment: Kinase binding screen; conditions: read-out: Percent Control at 100 nM Compound Concentration
# NEK10 = NEK10 (Homo sapiens (Human), UniProt Q6ZWH5); experiment: Kinase binding screen; conditions: read-out: Percent Control at 100 nM Compound Concentration
smiles,measurement,setting,value
"CN(C[C@@H](O)Cc1ccccc1)C(=O)c1cncc(C#Cc2cnn(C(F)F)c2)c1 [Example 2, (S)-5-((1-(difluoromethyl)-1H-pyrazol-4-yl)ethynyl)-N-(2-hydroxy-3-phenylpropyl)-N-methylnicotinamide]",remaining activity at 0.1 µM,NEK3; NEK3,96%
same,remaining activity at 0.1 µM,CLK3; CLK3,97%
same,remaining activity at 0.1 µM,AXL; AXL,100%
same,remaining activity at 0.1 µM,YANK2; YANK2,100%
same,remaining activity at 0.1 µM,PRKG1; PRKG1,92%
same,remaining activity at 0.1 µM,FGFR4; FGFR4,100%
same,remaining activity at 0.1 µM,SNARK; SNARK,99%
same,Number of Hits S(1),non-mutant kinases,0
same,Number of Hits S(10),non-mutant kinases,1
same,Number of Hits S(35),non-mutant kinases,3
same,Selectivity Score S(10),non-mutant kinases,0.002
same,Selectivity Score S(35),non-mutant kinases,0.007
same,remaining activity at 0.1 µM,PCTK3; PCTK3,100%
same,remaining activity at 0.1 µM,DMPK2; DMPK2,97%
same,remaining activity at 0.1 µM,ADCK3; ADCK3,100%
same,remaining activity at 0.1 µM,MELK; MELK,77%
same,remaining activity at 0.1 µM,AAK1; AAK1,96%
same,remaining activity at 0.1 µM,PHKG2; PHKG2,100%
same,remaining activity at 0.1 µM,MARK4; MARK4,91%
same,remaining activity at 0.1 µM,PIK3CA(M10431); PIK3CA(M10431),92%
same,remaining activity at 0.1 µM,LRRK2; LRRK2,100%
same,remaining activity at 0.1 µM,[1]; ABL1(F317L)-nonphosphorylated,100%
same,remaining activity at 0.1 µM,PRKCD; PRKCD,98%
same,remaining activity at 0.1 µM,PDGFRA; PDGFRA,73%
same,remaining activity at 0.1 µM,[2]; ABL1(E255K)-phosphorylated,86%
same,remaining activity at 0.1 µM,ACVRL1; ACVRL1,100%
same,remaining activity at 0.1 µM,YSK1; YSK1,100%
same,remaining activity at 0.1 µM,ERBB2; ERBB2,70%
same,remaining activity at 0.1 µM,CDK2; CDK2,100%
same,remaining activity at 0.1 µM,NEK10; NEK10,91%
"CN(C[C@H](Cc1ccccc1)OP(=O)(O)O)C(=O)c1cncc(C#Cc2cnn(C(F)F)c2)c1 [Example 19, (S)-1-(5-((1-(difluoromethyl)-1H-pyrazol-4-yl)ethynyl)-N-methylnicotinamido)-3-phenylpropan-2-yl dihydrogen phosphate]",remaining activity at 0.1 µM,NEK3,96%
same,remaining activity at 0.1 µM,CLK3,93%
same,remaining activity at 0.1 µM,AXL,96%
same,remaining activity at 0.1 µM,YANK2,95%
same,remaining activity at 0.1 µM,PRKG1,100%
same,remaining activity at 0.1 µM,FGFR4,100%
same,remaining activity at 0.1 µM,SNARK,99%
same,Number of Hits S(1),non-mutant kinases,0
same,Number of Hits S(10),non-mutant kinases,0
same,Number of Hits S(35),non-mutant kinases,0
same,remaining activity at 0.1 µM,PCTK3,100%
same,remaining activity at 0.1 µM,DMPK2,96%
same,remaining activity at 0.1 µM,ADCK3,100%
same,remaining activity at 0.1 µM,MELK,83%
same,remaining activity at 0.1 µM,AAK1,100%
same,remaining activity at 0.1 µM,PHKG2,100%
same,remaining activity at 0.1 µM,MARK4,94%
same,remaining activity at 0.1 µM,PIK3CA(M10431),85%
same,remaining activity at 0.1 µM,LRRK2,81%
same,remaining activity at 0.1 µM,[1],100%
same,remaining activity at 0.1 µM,PRKCD,94%
same,remaining activity at 0.1 µM,PDGFRA,85%
same,remaining activity at 0.1 µM,[2],91%
same,remaining activity at 0.1 µM,ACVRL1,100%
same,remaining activity at 0.1 µM,YSK1,97%
same,remaining activity at 0.1 µM,ERBB2,65%
same,remaining activity at 0.1 µM,CDK2,100%
same,remaining activity at 0.1 µM,NEK10,100%

# From patent US11767310B2, “Nicotinamide RIPK1 inhibitors” (AbbVie Inc., priority 2021, dated 2023)
